From PubChem BioAssay AID463136 (University of Pittsburgh Molecular Library Screening Center, 2010) come the findings set out here.

Inconclusive results are not listed. Active and inactive are the calls of the source. No rule for the calls is given here.

Test [1] in a line: blockers of dynein-driven microtubule transport – imaging, high-content imaging, dose response (AID 463136).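 Also: mouse mammary adenocarcinoma 3617.4 cells expressing GFP-tagged rat glucocorticoid receptor.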 The note with it: HCS imaging, dynein-mediated cargo transport inhibition; inhibition at max concentration; at 50 µM; stronger effect = higher value.
For test [2], the system named is HCS imaging, dynein-mediated cargo transport inhibition. The description is as above.

For `O=C(Nc1ccc(Cl)cc1)/C(=C/c1cccc(O)c1)c1nc2ccccc2s1`, the inhibition in test [1] is 40.7%. Besides, the IC50 in test [2] was > 50 µM (inactive).

As to `CCCSc1cc(NCCOC(=O)CCC)c([N+](=O)[O-])c2nonc12`, the inhibition in test [1] amounted to 59.1%. In addition, in test [2], the IC50 is 28.4 µM. On the same counts, the results for `CCCCNc1c2c3c(cccc3n(C)c1=O)C(=O)c1ccccc1-2` are 12% and > 50 µM (inactive).

On to `COc1ccc(OC)c(N2C(=O)NC(=O)/C(=C/c3ccc([N+](=O)[O-])s3)C2=O)c1`, for which the inhibition in test [1] was determined as 86.6%. In addition, in test [2], the IC50 is 12.5 µM. On the same counts, the results for `CC(=O)Nc1c([N+](=O)[O-])cc(C)c(Cl)c1[N+](=O)[O-]` are 88.8% and 11.2 µM. The matching figures for `Cn1cc([N+](=O)[O-])c(C(=O)Nc2cc(Oc3ccccc3)cc([N+](=O)[O-])c2)n1`: 45.9% and > 50 µM (inactive). The matching figures for `C#CC(=O)N(c1ccc(OC)cc1OC)C(C(=O)NC1CCCC1)c1cccs1` (stereo not drawn): 0.987% and > 50 µM (inactive). For `CC(C)(C)c1cc(CN(CCO)CCO)cc(C(C)(C)C)c1O`, the inhibition in test [1] turned out to be 33.9%. In addition, the IC50 in test [2] was > 50 µM (inactive). The matching figures for `CCOC(=O)CC1C(=O)NCCN1c1nc2ccc(C)cn2c(=O)c1/C=C1\SC(=S)N(C(C)CC)C1=O` (stereo not drawn): 80.8% and 27.3 µM. Take `O=C1C=C(c2ccc(Cl)cc2)C(=O)N1Nc1ccccc1`: in test [1], the inhibition came to 75.7%. Besides, in test [2], the 50% inhibitory concentration (IC50) is 39.3 µM. On the same counts, the results for `CC(C)(C)C(=O)Cn1ncc(Br)c(Br)c1=O` are 59.6% and 7.91 µM.

With `Cc1ccccc1N1C(=O)CC(Sc2nnc(-c3ccccc3)o2)C1=O` (stereo not drawn), the inhibition in test [1] was 16.4%. For the same compound, in test [2], the IC50 is > 50 µM (inactive). The matching figures for `CC(=O)n1cc(N(C(=O)CCl)c2ccc(C)cc2)c2ccccc21`: 68.7% and 16.8 µM.

For `CC(C)N1C/C(=C/c2cccnc2)C(=O)/C(=C/c2cccnc2)C1`, in test [1], the inhibition is 83%. Besides, the IC50 in test [2] is 8.41 µM. On the same counts, the results for `O=[N+]([O-])c1c(NCCCO)cc(Sc2ccc(Cl)cc2)c2nonc12` are 30.9% and > 50 µM (inactive). The matching figures for `O=C(/C(=C/c1ccc(Cl)cc1)c1nc2ccccc2[nH]1)c1cccs1`: 81.7% and 24.9 µM. On the same counts, the results for `CCOC(=O)COc1ccc(/C=C/[N+](=O)[O-])c(OCC(=O)OCC)c1` are 82.8% and 11.4 µM.

In the case of `O=C(CCl)N(CCCNC(=O)C(F)(F)F)c1ccc([N+](=O)[O-])cc1`, the inhibition in test [1] turned out to be 83.1%. For the same compound, the IC50 in test [2] was 10.8 µM. The matching figures for `C=CS(=O)(=O)c1sc(Cl)c(N2CCOCC2)c1[N+](=O)[O-]`: 10.2% and > 50 µM (inactive). On to `O=C(CCl)N(C/C=C/c1ccccc1)c1ccc2c(c1)OCCO2`, for which the inhibition in test [1] is 78.1%. In test [2], the IC50 was 27.1 µM.

As for `COc1cc(NC(=O)Cn2ncc(Cl)c(Cl)c2=O)c(C)cc1[N+](=O)[O-]`, the inhibition in test [1] came to 64.6%. In addition, the IC50 in test [2] is 7.75 µM.

With `CCOC(=O)N1C/C(=C\c2ccccc2)C(=O)/C(=C/c2ccccc2)C1`, in test [1], the inhibition was found to be 78.7%. Also, the IC50 in test [2] is 32.8 µM. Turning to `COc1cccc(/C(O)=C/c2nc3ccc(C(=O)NCCc4ccc(Cl)cc4)cc3[nH]c2=O)c1`, in test [1], the inhibition stood at 32.4%. In addition, the IC50 in test [2] was > 50 µM (inactive).

On to `COc1ccc2c(c1)c1ccc3c(c1n2C)C(=O)C=CC3=O`, for which the inhibition in test [1] is 93.1%. The IC50 in test [2] was 14.5 µM. The matching figures for `CC1(C)CC(=O)C2=C(C1)OC1=C(C(=O)CC(C)(C)C1)C2c1ccc(O)cc1O`: 65.8% and 22.6 µM. On the same counts, the results for `COc1cc(/C=C/C(=O)c2ccc(F)cc2)cc(OC)c1OC` are 69.5% and 36.7 µM. On the same counts, the results for `O=C(OCn1ncc(Br)c(Br)c1=O)c1c(F)cccc1F` are 81.6% and 18.5 µM.

Take `CC1(C)CCSC(/C=C/c2ccccc2)=N1`: the inhibition in test [1] is 92.6%. For the same compound, the IC50 in test [2] is 18.7 µM. The matching figures for `O=c1cc(C(F)(F)F)c2cc3c4c(c2o1)CCCN4CCC3`: 99.6% and 5.51 µM. The matching figures for `COc1ccc(CN=Cc2[nH]c3ccc(Br)c(Cl)c3c2O)cc1`: 93.4% and 28.5 µM. On the same counts, the results for `O=C1NC(=O)N(c2ccccc2)C(=O)/C1=C\c1ccc([N+](=O)[O-])s1` are 85.5% and 14.4 µM. In the case of `CC(=O)/C(=C/c1ccccc1)C(=O)Nc1ccccc1C`, the inhibition in test [1] worked out at 70.1%. Also, the IC50 in test [2] is 15.9 µM. The matching figures for `O=C1NC(=O)N(Cc2ccc(F)cc2)C(=O)/C1=C\C=C\c1ccco1`: 74.8% and 30.9 µM.

Turning to `O=C(CCl)c1ccc2c(c1)CCN2C(=O)C1CCCCC1`, the inhibition in test [1] was determined as 78.2%. For the same compound, the IC50 in test [2] is 27 µM. On the same counts, the results for `CC[n+]1c(/C=C/C=C/N(C(C)=O)c2ccccc2)sc2ccccc21` are 99.6% and 1.08 µM. The matching figures for `Cc1nc2c(=O)n(C)c(=O)n(C)c2nc1Cl`: 62.9% and 9.82 µM. For `O=Cc1s/c(=N\S(=O)(=O)c2ccccc2)n(CCCCl)c1Cl`, the inhibition in test [1] amounted to 68.2%. Further, the IC50 in test [2] is 33.2 µM. The matching figures for `CCN1C(=O)C(=C/C=C/c2ccco2)C(=O)N(CC)C1=S`: 75.1% and 41.3 µM.

Turning to `CCN1CC=C2C(C#N)=C(N)C(C#N)(C#N)C(CCc3ccccc3)C2C1` (stereo not drawn), the inhibition in test [1] is 98.8%. In test [2], the IC50 is 19.5 µM. The matching figures for `CC(=O)OCCN(C)c1cc(SC(C)C)c2nonc2c1[N+](=O)[O-]`: 68.1% and 35.5 µM. The matching figures for `CCCNC(=O)c1nnsc1S(=O)c1ccc(Cl)cc1` (stereo not drawn): 77% and 7.07 µM.

For `Cc1cc(Cl)n2c(nc3cc(F)c(F)cc32)c1C#N`, the inhibition in test [1] stood at 36.6%. In addition, in test [2], the IC50 was 25.5 µM. In the case of `COc1cccc(/C=C/C(=O)c2cccc([N+](=O)[O-])c2)c1OC`, the inhibition in test [1] was 27.1%. For the same compound, the IC50 in test [2] is > 50 µM (inactive). On the same counts, the results for `CCN(CC)c1ccc(/C=N/c2sc3c(c2C#N)C2CCN3CC2)c(O)c1` are 82.6% and 38 µM. Consider `COC(C/C=C/C(=O)COCc1ccccc1)OC`, for which the inhibition in test [1] turned out to be 69.3%. Besides, the half-maximal inhibitory concentration (IC50) in test [2] is 8.5 µM. Regarding `CCOC(=O)C(=Cc1ccc(F)cc1)C(=O)OCC`, the inhibition in test [1] was found to be 73.4%. Further, the IC50 in test [2] is 27.8 µM. On the same counts, the results for `N#Cc1c(C(F)(F)F)cc(-c2ccccc2)nc1SCc1nc(N)nc(N2CCOCC2)n1` are 8.72% and > 50 µM (inactive).

For `CC(C)Cn1c([N+](=O)[O-])nc2c1c(=O)[nH]c(=O)n2C`, in test [1], the inhibition turned out to be 83.8%. Further, the IC50 in test [2] was 5.26 µM. The matching figures for `Cc1ccc(C2=NN(C(=O)CCl)C(c3cccs3)C2)o1` (stereo not drawn): 80.3% and 8.74 µM. As for `N#CC1=C(N)OC2=C(CC/C2=C\c2ccccc2)C1c1ccccc1` (stereo not drawn), the inhibition in test [1] worked out at 75.8%. For the same compound, the IC50 in test [2] was 11.1 µM. The matching figures for `O=C(OCCN1C(=O)c2cccc3c(N4CCOCC4)ccc(c23)C1=O)c1ccc(Cl)cc1Cl`: 2.73% and > 50 µM (inactive). The matching figures for `C=CCn1c(Sc2ncc([N+](=O)[O-])s2)n[nH]c1=O`: 62.3% and 20 µM. Consider `O=C1CN(C(=O)Cn2ncc(Cl)c(Cl)c2=O)c2ccccc2N1`, for which the inhibition in test [1] was determined as 76.5%. Further, the IC50 in test [2] was 9.46 µM. On the same counts, the results for `O=C(c1nnsc1S(=O)(=O)c1ccc(Cl)cc1)N1CCOCC1` are 60.5% and 5.38 µM. On the same counts, the results for `Cc1nc([N+](=O)[O-])c(Br)n1CC(=O)c1ccc(F)cc1` are 92.2% and 3.25 µM.

For the compound `COc1ccc(-n2c(C)cc(C(=O)CCl)c2C)cc1`, in test [1], the inhibition was found to be 80.4%. Besides, the IC50 in test [2] was 13.1 µM. The matching figures for `O=S(=O)(c1ccccc1)c1ncc(C(F)(F)F)cc1Cl`: 79.3% and 8.14 µM.

For `N#Cc1ccccc1Cn1cc(/C=C/[N+](=O)[O-])c2ccccc21`, the inhibition in test [1] is 83.6%. Further, in test [2], the IC50 was 34.6 µM.

As for `Cc1ccnc(N/C=C(\C#N)c2nc(-c3cccc(Br)c3)cs2)c1`, in test [1], the inhibition was found to be 102%. Besides, in test [2], the IC50 is 8.77 µM. The matching figures for `CCNc1ccc(Br)cc(C(=O)/C=C/c2ccc(Cl)cc2Cl)c1=O`: 99.2% and 32.9 µM.

As for `COC(=O)c1ccc(-n2c(C)cc(C(=O)CCl)c2C)cc1`, in test [1], the inhibition was 66.8%. For the same compound, the IC50 in test [2] is 21.9 µM. The matching figures for `Cc1cc(C)c(S(=O)(=O)ON2C(=O)c3ccccc3C2=O)cc1C`: 10.5% and > 50 µM (inactive). The matching figures for `O=[N+]([O-])/C=C/c1cn(Cc2ccc(F)cc2)c2ccccc12`: 14% and > 50 µM (inactive). The matching figures for `CCc1ccccc1NC(=O)CN(C)C(=O)Cn1ncc(Cl)c(Cl)c1=O`: 81.8% and 7.32 µM. Regarding `CC1(C)C[C@H]2C=C(C=O)[C@]3(C=O)C[C@]3(C)[C@H]2C1`, the inhibition in test [1] came to 78.6%. In addition, the IC50 in test [2] was 12.9 µM. For `Cn1c(=O)c(NCCO)c2c3c(cccc31)C(=O)c1ccccc1-2`, the inhibition in test [1] was -13.2%. Further, the IC50 in test [2] was > 50 µM (inactive).

Consider `C=CCn1c(C)cc(C(=O)Cn2ncc(Cl)c(Cl)c2=O)c1C`, for which, in test [1], the inhibition was 86.5%. The IC50 in test [2] is 10.3 µM. The matching figures for `O=C(/C=C/c1cccc([N+](=O)[O-])c1)n1cnc2ccccc21`: 85.7% and 17.3 µM. As for `O=[N+]([O-])c1ccc(C2=NN(c3ccccc3)C(c3ccco3)C2)cc1` (stereo not drawn), the concentration for half-maximal inhibition (IC50) in test [2] was 32.3 µM.

With `Cc1cccc2cc3c(N)c(C(=O)N4CCc5ccccc54)sc3nc12`, the half-inhibitory concentration (IC50) in test [2] was 5.15 µM.

What is called inhibition is the relative decrease from the control value, in per cent. Broadly, the IC50 is the concentration at which inhibition is half-maximal.
